Results: US10385024B2, “Compounds and methods for inhibiting NHE-mediated antiport in the treatment of disorders associated with fluid retention or salt overload and gastrointestinal tract disorders” (Ardelyx, Inc., priority 2012, dated 2019)

Legend:
human NHE-3 = target: T1, human NHE-3 (Homo sapiens, UniProt P48764); assay: Cell-based assay of NHE-3 activity (human NHE3 inhibition assay); conditions: OK cells with human NHE-3 gene, BCECF pH dye, 0-30 μM test compound; for IC50: read-out: Human NHE3 pIC50 (converted)
T1 construct: expressed in transfected cells; host or cells: Opossum kidney (OK) cells (ATCC), transfected by electroporation
T1 sequence (P48764 26-834): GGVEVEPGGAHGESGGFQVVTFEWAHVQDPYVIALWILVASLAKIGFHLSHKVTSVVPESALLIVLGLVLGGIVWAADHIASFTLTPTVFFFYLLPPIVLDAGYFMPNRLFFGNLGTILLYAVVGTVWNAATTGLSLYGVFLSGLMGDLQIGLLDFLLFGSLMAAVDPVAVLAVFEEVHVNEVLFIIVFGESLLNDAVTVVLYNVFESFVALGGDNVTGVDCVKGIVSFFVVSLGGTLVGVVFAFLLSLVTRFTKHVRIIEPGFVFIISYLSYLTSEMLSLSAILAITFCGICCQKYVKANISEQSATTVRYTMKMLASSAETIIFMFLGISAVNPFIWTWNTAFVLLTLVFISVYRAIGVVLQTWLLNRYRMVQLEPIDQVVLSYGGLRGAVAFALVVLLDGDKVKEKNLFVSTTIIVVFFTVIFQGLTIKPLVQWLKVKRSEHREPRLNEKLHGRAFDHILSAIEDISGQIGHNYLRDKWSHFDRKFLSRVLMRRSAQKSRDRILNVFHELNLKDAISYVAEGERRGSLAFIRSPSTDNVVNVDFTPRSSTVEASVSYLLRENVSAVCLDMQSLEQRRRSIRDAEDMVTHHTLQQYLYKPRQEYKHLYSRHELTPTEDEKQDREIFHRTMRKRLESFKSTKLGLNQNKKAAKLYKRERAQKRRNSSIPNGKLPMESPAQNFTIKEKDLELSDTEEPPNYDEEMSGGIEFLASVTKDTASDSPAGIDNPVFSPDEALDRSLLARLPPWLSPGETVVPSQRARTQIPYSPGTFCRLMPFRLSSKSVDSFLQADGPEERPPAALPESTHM
Method: (§1) Rat or human NHE-3-mediated Na^+-dependent H^+ antiport was measured using a modification of the pH sensitive dye method originally reported by Paradiso (Proc. Natl. Acad. Sci. USA. (1984) 81(23): 7436-7440). Opossum kidney (OK) cells were obtained from the ATCC and propagated per their instructions. The rat NHE-3 gene (GenBank M85300) or the human NHE-3 gene (GenBank NM_004174.1) was introduced into OK cells via electroporation, and cells were seeded into 96 well plates and grown overnight. Medium was aspirated from the wells, cells were washed twice with NaCl-HEPES buffer (100 mM NaCl, 50 mM HEPES, 10 mM glucose, 5 mM KCl, 2 mM CaCl2, 1 mM MgCl2, pH 7.4), then incubated for 30 min at room temperature with NH4Cl-HEPES buffer (20 mM NH4Cl, 80 mM NaCl, 50 mM HEPES, 5 mM KCl, 2 mM CaCl2, 1 mM MgCl2, pH 7.4) containing 5 μM bis(acetoxymethyl) 3,3′-(3′,6′-bis(acetoxymethoxy)-5-((acetoxymethoxy)carbonyl)-3-oxo-3H-spiro[isobenzofuran-1,9′-xanthene]-2′,7′-diyl)dipropanoate (BCECF-AM). Cells were washed twice with Ammonium free, Na^+-free HEPES (100 mM choline, 50 mM HEPES, 10 mM glucose, 5 mM KCl, 2 mM CaCl2, 1 mM MgCl2, pH 7.4) and incubated in the same buffer for 10 minutes at room temperature to lower intracellular pH. […] Initial rates were plotted as the average 2 or more replicates, and pIC50 values were estimated using GraphPad Prism.

Rat NHE-3 [1] = target: T2, Rat NHE-3 (Rattus norvegicus, UniProt P26433); assay: Cell-based assay of NHE-3 activity (rat NHE-3 prompt inhibition); conditions: OK cells with rat NHE-3 gene, compound present during pH recovery; read-out: Rat NHE3 pIC50 (prompt) (converted)
T2 construct: expressed in transfected cells; host or cells: Opossum kidney (OK) cells (ATCC), transfected by electroporation
Method: as §1

Rat NHE-3 [2] = target: T2, Rat NHE-3; assay: Cell-based assay of NHE-3 activity (persistent inhibition, after washout); conditions: OK cells with rat NHE-3 gene, 60 min incubation, recovery initiated 40 min after compound washout; read-out: Rat NHE3 pIC50 (persistent) (converted)
Method: The ability of compounds to inhibit Rat NHE-3-mediated Na^+-dependent H^+ antiport after application and washout was measured using a modification of the pH sensitive dye method described above in Example 74. Opossum kidney (OK) cells were obtained from the ATCC and propagated per their instructions. The rat NHE-3 gene was introduced into OK cells via electroporation, and cells were seeded into 96 well plates and grown overnight. Medium was aspirated from the wells, cells were washed twice with NaCl-HEPES buffer (100 mM NaCl, 50 mM HEPES, 10 mM glucose, 5 mM KCl, 2 mM CaCl2, 1 mM MgCl2, pH 7.4), then overlayed with NaCl-HEPES buffer containing 0-30 μM test compound. After a 60 min incubation, the test drug containing buffer was aspirated from the cells, cells were washed twice with NaCl-HEPES buffer without drug, then incubated for 30 min at room temperature with NH4Cl-HEPES buffer (20 mM NH4Cl, 80 mM NaCl, 50 mM HEPES, 5 mM KCl, 2 mM CaCl2, 1 mM MgCl2, pH 7.4) containing 5 μM BCECF-AM. Cells were washed twice with ammonium free, Na^+-free HEPES (100 mM choline, 50 mM HEPES, 10 mM glucose, 5 mM KCl, 2 mM CaCl2, 1 mM MgCl2, pH 7.4) and incubated in the same buffer for 10 minutes at room temperature to lower intracellular pH. […] Initial rates were plotted as the average 2 or more replicates, and pIC50 values were estimated using GraphPad Prism.

T2 sequence (P26433 29-831): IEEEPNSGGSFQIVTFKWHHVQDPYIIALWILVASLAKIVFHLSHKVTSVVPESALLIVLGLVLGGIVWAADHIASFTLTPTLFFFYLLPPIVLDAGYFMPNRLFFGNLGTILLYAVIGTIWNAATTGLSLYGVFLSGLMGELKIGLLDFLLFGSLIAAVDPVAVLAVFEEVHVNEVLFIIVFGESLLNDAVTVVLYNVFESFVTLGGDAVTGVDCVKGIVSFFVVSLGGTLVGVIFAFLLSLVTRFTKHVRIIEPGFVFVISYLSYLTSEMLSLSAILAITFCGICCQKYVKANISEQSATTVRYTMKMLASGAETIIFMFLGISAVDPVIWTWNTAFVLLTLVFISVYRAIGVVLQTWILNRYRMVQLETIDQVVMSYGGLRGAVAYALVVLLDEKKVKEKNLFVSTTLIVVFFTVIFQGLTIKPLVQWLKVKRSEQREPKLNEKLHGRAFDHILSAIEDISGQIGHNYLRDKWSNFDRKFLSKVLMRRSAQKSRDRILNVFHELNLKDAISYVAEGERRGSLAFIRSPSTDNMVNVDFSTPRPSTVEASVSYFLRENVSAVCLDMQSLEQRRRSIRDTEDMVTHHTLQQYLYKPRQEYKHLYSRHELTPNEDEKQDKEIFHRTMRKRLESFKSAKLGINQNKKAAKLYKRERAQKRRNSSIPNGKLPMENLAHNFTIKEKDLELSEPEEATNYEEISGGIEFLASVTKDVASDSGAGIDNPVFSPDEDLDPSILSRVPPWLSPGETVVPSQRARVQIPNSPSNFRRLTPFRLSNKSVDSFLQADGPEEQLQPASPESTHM

IC50 (human NHE-3) [µM]	IC50 (Rat NHE-3 [1]) [µM]	IC50 (Rat NHE-3 [2]) [µM]	Human NHE3 pIC50 (human NHE-3)	SMILES
0.1 to 10	0.1 to 10	< 0.1	–	CN1Cc2c(Cl)cc(Cl)cc2[C@H](c2cccc(S(=O)(=O)NCCOCCOCCNC(=O)CCC(CCC(=O)NCCOCCOCCNS(=O)(=O)c3cccc([C@@H]4CN(C)Cc5c(Cl)cc(Cl)cc54)c3)(CCC(=O)NCCOCCOCCNS(=O)(=O)c3cccc([C@@H]4CN(C)Cc5c(Cl)cc(Cl)cc54)c3)[N+](=O)[O-])c2)C1 [Example 1, N1,N7-bis(2-(2-(2-(3-((S)-6,8-dichloro-2-methyl-1,2,3,4-tetrahydroisoquinolin-4-yl)phenylsulfonamido)ethoxy)ethoxy)ethyl)-4-(3-(2-(2-(2-(3-((S)-6,8-dichloro-2-methyl-1,2,3,4-tetrahydroisoquinolin-4-yl)phenylsulfonamido)ethoxy)ethoxy)ethylamino)-3-oxopropyl)-4-nitroheptanediamide]
0.1 to 10	0.1 to 10	< 0.1	–	CN1Cc2c(Cl)cc(Cl)cc2[C@H](c2cccc(S(=O)(=O)NCCOCCOCCOCCNC(=O)CCC(CCC(=O)NCCOCCOCCOCCNS(=O)(=O)c3cccc([C@@H]4CN(C)Cc5c(Cl)cc(Cl)cc54)c3)(CCC(=O)NCCOCCOCCOCCNS(=O)(=O)c3cccc([C@@H]4CN(C)Cc5c(Cl)cc(Cl)cc54)c3)NC(=O)Nc3ccccc3)c2)C1 [Example 13, 4-(1-(3-((S)-6,8-dichloro-2-methyl-1,2,3,4-tetrahydroisoquinolin-4-yl)phenylsulfonamido)-13-oxo-3,6,9-trioxa-12-azapentadecan-15-yl)-N^1,N^7-bis(2-(2-(2-(2-(3-((S)-6,8-dichloro-2-methyl-1,2,3,4-tetrahydroisoquinolin-4-yl)phenylsulfonamido)ethoxy)ethoxy)ethoxy)ethyl)-4-(3-phenylureido)heptanediamide]
0.1 to 10	> 10	0.1 to 10	–	CCCCCCCCCCC(=O)NC(CCC(=O)NCCOCCOCCOCCNS(=O)(=O)c1cccc([C@@H]2CN(C)Cc3c(Cl)cc(Cl)cc32)c1)(CCC(=O)NCCOCCOCCOCCNS(=O)(=O)c1cccc([C@@H]2CN(C)Cc3c(Cl)cc(Cl)cc32)c1)CCC(=O)NCCOCCOCCOCCNS(=O)(=O)c1cccc([C@@H]2CN(C)Cc3c(Cl)cc(Cl)cc32)c1 [Example 15, 4-(1-(3-((S)-6,8-dichloro-2-methyl-1,2,3,4-tetrahydroisoquinolin-4-yl)phenylsulfonamido)-13-oxo-3,6,9-trioxa-12-azapentadecan-15-yl)-N^1,N^7-bis(2-(2-(2-(2-(3-((S)-6,8-dichloro-2-methyl-1,2,3,4-tetrahydroisoquinolin-4-yl)phenylsulfonamido)ethoxy)ethoxy)ethoxy)ethyl)-4-undecanamidoheptanediamide]
> 10	0.1 to 10	0.1 to 10	–	CN1Cc2c(Cl)cc(Cl)cc2[C@H](c2cccc(S(=O)(=O)NCCOCCOCCOCCNC(=O)CCC(CCC(=O)NCCOCCOCCOCCNS(=O)(=O)c3cccc([C@@H]4CN(C)Cc5c(Cl)cc(Cl)cc54)c3)(CCC(=O)NCCOCCOCCOCCNS(=O)(=O)c3cccc([C@@H]4CN(C)Cc5c(Cl)cc(Cl)cc54)c3)NC(=O)c3ccc(-c4ccc(Cl)cc4)cc3)c2)C1 [Example 16, 4-(4′-chlorobiphenyl-4-ylcarboxamido)-4-(1-(3-((S)-6,8-dichloro-2-methyl-1,2,3,4-tetrahydroisoquinolin-4-yl)phenylsulfonamido)-13-oxo-3,6,9-trioxa-12-azapentadecan-15-yl)-N^1,N^7-bis(2-(2-(2-(2-(3-((S)-6,8-dichloro-2-methyl-1,2,3,4-tetrahydroisoquinolin-4-yl)phenylsulfonamido)ethoxy)ethoxy)ethoxy)ethyl)heptanediamide]
–	–	–	B (B NHE3 pIC50 5-7)	CN1Cc2c(Cl)cc(Cl)cc2[C@H](c2cccc(S(=O)(=O)NCCOCCOCCNC(=O)CCC(CCC(=O)NCCOCCOCCNS(=O)(=O)c3cccc([C@@H]4CN(C)Cc5c(Cl)cc(Cl)cc54)c3)(CCC(=O)NCCOCCOCCNS(=O)(=O)c3cccc([C@@H]4CN(C)Cc5c(Cl)cc(Cl)cc54)c3)NC(=O)c3ccc(-c4ccc(Cl)cc4)cc3)c2)C1 [Example 35]

More lines, now with the values behind:

SMILES	IC50 (human NHE-3) [µM]	IC50 (Rat NHE-3 [1]) [µM]	IC50 (Rat NHE-3 [2]) [µM]	Human NHE3 pIC50 (human NHE-3)
CN1Cc2c(Cl)cc(Cl)cc2[C@H](c2cccc(S(=O)(=O)NCCOCCOCCOCCn3cc(CN(Cc4cn(CCOCCOCCOCCNS(=O)(=O)c5cccc([C@@H]6CN(C)Cc7c(Cl)cc(Cl)cc76)c5)nn4)Cc4cn(CCOCCOCCOCCNS(=O)(=O)c5cccc([C@@H]6CN(C)Cc7c(Cl)cc(Cl)cc76)c5)nn4)nn3)c2)C1 [Example 18, (S,S)—N,N′,N″-(2,2′,2″-(2,2′,2″-(2,2′,2″-(2,2′,2″-(4,4′,4″-nitrilotris(methylene)tris(1H-1,2,3-triazole-4,1-diyl))tris(ethane-2,1-diyl))tris(oxy)tris(ethane-2,1-diyl))tris(oxy)tris(ethane-2,1-diyl))tris(oxy)tris(ethane-2,1-diyl))tris(3-((S)-6,8-dichloro-2-methyl-1,2,3,4-tetrahydroisoquinolin-4-yl)benzenesulfonamide)]	0.1 to 10	0.1 to 10	> 10	–
CN1Cc2c(Cl)cc(Cl)cc2[C@H](c2cccc(S(=O)(=O)NCCOCCOCCNC(=O)CN(CCOCCOCCN(CC(=O)NCCOCCOCCNS(=O)(=O)c3cccc([C@@H]4CN(C)Cc5c(Cl)cc(Cl)cc54)c3)CC(=O)NCCOCCOCCNS(=O)(=O)c3cccc([C@@H]4CN(C)Cc5c(Cl)cc(Cl)cc54)c3)CC(=O)NCCOCCOCCNS(=O)(=O)c3cccc([C@@H]4CN(C)Cc5c(Cl)cc(Cl)cc54)c3)c2)C1 [Example 50]	–	–	–	B (B NHE3 pIC50 5-7)
CN1Cc2c(Cl)cc(Cl)cc2[C@H](c2cccc(S(=O)(=O)NCCOCCOCCNC(=O)NCCN(CCNC(=O)NCCOCCOCCNS(=O)(=O)c3cccc([C@@H]4CN(C)Cc5c(Cl)cc(Cl)cc54)c3)C(=O)NCCCCNC(=O)N(CCNC(=O)NCCOCCOCCNS(=O)(=O)c3cccc([C@@H]4CN(C)Cc5c(Cl)cc(Cl)cc54)c3)CCNC(=O)NCCOCCOCCNS(=O)(=O)c3cccc([C@@H]4CN(C)Cc5c(Cl)cc(Cl)cc54)c3)c2)C1 [Example 60]	–	–	–	C (C NHE3 pIC50 > 7)
CN1Cc2c(Cl)cc(Cl)cc2[C@H](c2cccc(S(=O)(=O)NCCOCCOCCN(C)C(=O)CCC(CCC(=O)N(C)CCOCCOCCNS(=O)(=O)c3cccc([C@@H]4CN(C)Cc5c(Cl)cc(Cl)cc54)c3)(CCC(=O)N(C)CCOCCOCCNS(=O)(=O)c3cccc([C@@H]4CN(C)Cc5c(Cl)cc(Cl)cc54)c3)N(C)C)c2)C1 [Example 71]	–	–	–	C (C NHE3 pIC50 > 7)
